Experimental data published in patent US20090087417A1, “METHODS FOR PROMOTING DOPAMINERGIC NEURONAL DEVELOPMENT BY USING NG4A-SUBFAMILY AND WNT-LIGANDS” (priority 2002, published 2009).

Tests used:
Assay type in all cases: cell-based, rat
[1] = test system: E14.5 ventral mesencephalic precursor cultures; assay: Number of TH+ neurons in E14.5 ventral mesencephalic precursor cultures; conditions: increasing concentrations of partially purified Wnt, 3 days
Protocol: (§1) Ventral mesencephala and cerebral cortices from embryos E13.5-14.5 obtained from timed-mated Sprague-Dawley rats were dissected, mechanically dissociated and plated at a final density of 1×10^5 cells/cm2 on poly-D-lysine coated 12- or 24-well plates in a defined, serum-free medium (N2, consisting of a 1:1 mixture of F12 and DMEM containing insulin (10 ng/ml), transferrin (100 μg/ml), putrescine (100 μM), progesterone (20 nM), selenium (30 nM), glucose (6 mg/ml), and bovine serum albumin (1 mg/ml)). Purified Type 1 astrocytes were obtained from mixed glial cultures derived from the VM or CTX of P1 rats according to a standard protocol (Wagner et al., 1999). After shaking and replating into 12-well plates, astrocytes were grown to confluency in 15% fetal bovine serum-containing media and changed to N2 medium, at which time freshly dissected VM or CTX cells were plated on top of the astrocytes at a density of 1×10^5 cells/cm2. All factors were added once, at the initiation of culture, with the exception of 5-bromodeoxyuridine (BrdU), which was added 4-6 hours prior to fixation. Cultures were maintained in a humidified 5% CO2, 95% air incubator at 37° C. and fixed after given time periods with 4% paraformaldehyde for 45 minutes prior to immunocytochemical analysis.
B1A fibroblast lines stably overexpressing hemagglutanin-tagged Wnt-1a, 3a, or 5a (Shimizu H., 1997) were grown in standard complete media (DMEM+10% FBS) supplemented with 100 ug/ml G-418. For collection of conditioned media, cells were replated at low density in complete media and allowed to reach 50-75% confluency, at which point cells were washed and media was replaced with serum-free N2 (with 10 μM sodium butyrate) for 24 hours. Conditioned media from sister flasks was then harvested, pooled as lots and stored at −80° C. for up to 2 months. When compared to fresh CM, no loss of activity was observed when using this collection and storage routine. T1A CM was harvested using a similar procedure, with the exception that media was collected after 3 days in vitro.
For concentration, individual lots of CM were thawed at room temperature, divided into 80 ml aliquots, loaded onto Centricon-Plus 80 columns (Millipore) and concentrated via centrifugation according to the manufacturers instructions. Following concentration, aliquots were re-pooled and frozen at −80 C after a sample was taken for determination of protein content and Western blot analysis. In brief, 20 ug of protein was loaded onto a 10% polyacrylamide mini-gel and run under denaturing conditions at 150 V for approximately 30 minutes. After dry electroblot transfer onto PVDF membranes (Hybond P, Amersham Pharmacia Biotech, Upsalla, Sweden) and pre-incubation for 30 minutes in a blocking buffer consisting of 3% bovine serum albumin in Tris-Buffered Saline with […] Triton-X 100 (TBST), blots were incubated with mouse anti-hemagglutinin (Babco) diluted 1:1000 in TBST overnight at 4 C. After washing, blots were incubated with alkaline phosphatase-coupled goat anti-mouse IgG (Santa Cruz) diluted 1:1000 in TBST for 1 hour at room temperature. Blots were visualized using the Amersham ECF reagent and blue fluorescence quantitated using a Molecular Devices Storm 840 phosphoimager.
(§2) B1A fibroblast lines were cotransfected with the mFz8CRD-IgG/pRK5 and the pIRES puro 2 (Clontech, BD Bioscience, Erembodegem, Belgium) plasmids, using Lipofectamine Plus reagent (Invitrogen, Lidingo, Sweden) according to the instruction of the manufacturer. Upon selection for puromycin resistance (1 μg/ml Sigma, Stockholm, Sweden), clones were isolated and expanded. A clone overexpressing Fz8CRD 700× (real time RT-PCR analysis) was identified. Harvesting and partial purification of Fz8CRD conditioned media were performed as described previously. In all the blocking experiments performed, the Fz8CRD and B1A control partial purified conditioned medias were used at a final concentration of 125-250 μg/ml. […]

VM cultures = assay: TuJ1+ neurons and proliferating clusters, proportion dopaminergic, in VM cultures
Protocol: as §1
(§3) Fixed cultures were incubated with one of the following antibodies, diluted appropriately in phosphate-buffered saline (PBS) containing 1% bovine serum albumin and 0.3% Triton-X 100: mouse anti-BrdU, 1:50 (DAKO, Denmark), mouse anti-β-tubulin, Type III (TuJ1), 1:250 (Sigma), mouse anti-TH, 1:1000 (Incstar, USA), rabbit anti-TH, 1:250 (PelFreeze); rabbit anti-Nurr1, 1:2000 (gift from Dr. T. Perlmann, Sweden), rabbit anti-Nurr1, 1:1000 (Santa Cruz, USA) or mouse anti-Nurr1, 1:250 (BD Transduction Laboratories, USA), rabbit anti Adh2 1:4000 (gift from Dr. R. Lindahl, South Carolina). Incubations were either carried out at 4° C. overnight, or at room temperature for 1 hour. Both processes yielded similar results. After washing, cultures were incubated for 1-3 hr with appropriate secondary antibodies (biotinylated 1:500; CY2-, FITC-, or rhodamine-coupled horse-anti-mouse IgG 1:100; or goat-anti-rabbit IgG 1:100; all from Vector, USA), in the same dilution buffer. Brightfield immunostaining was visualized with the Vector Laboratory ABC immunoperoxidase kit, using either NovaRed (red), or AEC (red), SG or 3-3′ dimaminobenzidine tetrahydrochloride (DAB 0.5 mg/ml)/nickel chloride (1.6 mg/ml) (gray/black), or VIP (violet) substrates. Double-staining was performed by sequential single staining as described. The order of staining was only critical for BrdU-double labeling, in which case the BrdU procedure was always performed second. […] Photos were acquired with a Zeiss Axioplan 100M microscope and collected with a Hamamatsu camera C4742-95 (with the QED imaging software).
(§4) Only clearly stained cells were counted as positive cells. Spheres were considered positive if they contained one or more positive cell. Quantitative immunocytochemical data on individual cells represent means and standard errors of counts obtained by a blinded observer from 10-20 non-overlapping fields (cells) or in the entire well (clusters), in each of 3-4 wells per condition from 3-4 independent experiments, unless stated otherwise. For each variable, initial statistical comparisons were performed by a global ANOVA, with multiple factors of dose, time point, treatment and/or region; if significant interactions between treatment and any other variable existed, data were further divided into separate times, doses or regions. Fisher's protected least significant difference was used post hoc to identify specific points at which the treatments differed from controls (or each other) only when significant interactions between factor treatment and other variables occurred. Significance for all tests was assumed at the level of p<0.05. […]

[2] = test system: E14.5 ventral mesencephalic (VM) cultures; assay: Proliferating clusters containing TH+ neurons in VM cultures; conditions: 10 units, 7 days in vitro
Protocol: as §1, with “All factors were added once, at the initiation of culture, with the exception of 5-bromodeoxyuridine (BrdU), which was added 4-6 hours prior to fixation. Cultures were maintained in a humidified 5% CO2, 95% air incubator at 37° C. and fixed after given time periods with 4% paraformaldehyde for 45 minutes prior to immunocytochemical analysis.” left out
Only clearly stained cells were counted as positive cells. […] Quantitative immunocytochemical data on individual cells represent means and standard errors of counts obtained by a blinded observer from 10-20 non-overlapping fields (cells) or in the entire well (clusters), in each of 3-4 wells per condition from 3-4 independent experiments, unless stated otherwise. […]

[3] = test system: VM precursor cultures / Nurr1+ precursor cells; assay: BrdU incorporation (proliferation) in VM precursor cultures
Protocol: as §1, §3, §4

[4] = test system: ventral mesencephalic Nurr1+ neuronal precursors; assay: Conversion of VM Nurr1+ precursors into Nurr1+/TH+ dopaminergic neurons (double immunostaining); conditions: VM cultures; control approximately 50%
Protocol: as §1, §2
Only clearly stained cells were counted as positive cells. […]

[5] = test system: E13.5 primary cultures from the cerebral cortex; assay: Induction of TH in Nurr1+ E13.5 cerebral cortex primary cultures; conditions: Wnt ligands or co-culture with P1 astrocytes
Protocol: as §1, §3
Only clearly stained cells were counted as positive cells. Spheres were considered positive if they contained one or more positive cell. Quantitative immunocytochemical data on individual cells represent means and standard errors of counts obtained by a blinded observer from 10-20 non-overlapping fields (cells) or in the entire well (clusters), in each of 3-4 wells per condition from 3-4 independent experiments, unless stated otherwise. […]

**Q.** Wnt-3a was tested. Which “TH+ cell numbers” value [1] did it give?
**A.** Its value is “no effect at doses up to 100 units”.

**Q.** And the “proportion of VM clusters containing dopaminergic neurons” value (VM cultures; FIG. 3e)?
**A.** Its value is “less than 10%”.

**Q.** And the “total number of TuJ1+ neurons” value (VM cultures; FIG. 3f)?
**A.** The value was “did not increase”.

**Q.** And the “proportion of TH+ (dopaminergic) neurons” value (VM cultures; FIG. 3g)?
**A.** The value was “decreased”.

**Q.** And the “increase in the number of clusters containing one or more TH+ neurons” value [2]?
**A.** Its value is “not”.

**Q.** What about the “increase in Nurr1 and BrdU double positive precursor cells (mitosis in Nurr1+ population)” value ([3]; 1 day in vitro) of the same substance?
**A.** Its value is 3 fold.

**Q.** What about the “BrdU incorporation in VM precursor cultures” value ([3]; 3 days in vitro) of the same substance?
**A.** Its value is “increased”.

**Q.** And the “proportion of Nurr1 positive cells that expressed TH (Nurr1+/TH+)” value [4]?
**A.** The value was 30%.

**Q.** And the “proportion of Nurr1 positive cortical cells that expressed TH” value [5]?
**A.** The value was “virtually no Nurr1 positive cortical cells co-expressed TH”.
